For series [1] the following is noted: cc_pd bond, Pd(dppf)Cl2·CH2Cl2, acetonitrile.
Series [2] concerns Escherichia coli ATCC 25922. The series can be described thus: Minimum inhibitory concentration (MIC), CLSI broth micro-dilution, E. coli. The format is cell-based. The following applies: Escherichia coli, ATCC25922, 22 h, Table 6, cation adjusted Mueller Hinton Broth + 0.002% Tween-80, 35° C. In a few lines: (§1)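 Colonies grown 20 h at 35° C on Trypticase Soy agar (MRSA) or Luria agar (E. coli) were suspended in cation-adjusted Mueller Hinton broth with 0.002% Tween-80. Suspensions were added at OD600 0.0005 to 10-point twofold compound dilutions, then incubated 22 h at 35° C.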
(In general: In broth dilution the organism is exposed to a series of concentrations in liquid medium.)

Series [3] has as its system Methicillin Resistant Staphylococcus aureus strain USA 200. The experiment in a line: Minimum inhibitory concentration (MIC), CLSI broth micro-dilution, S. aureus. The class given is cell-based. The following applies: Staphylococcus aureus, MRSA / USA200; Table 6; MRSA USA 200; cation adjusted Mueller Hinton Broth + 0.002% Tween-80; 35° C., 22 hours. A digest of the protocol:
as §1

Like-named read-outs stand apart in the source and are kept apart here.

Turning to `COC(=O)[C@@H]1Cc2cc(F)c(OCc3ccccc3)c(c2)-c2cc(ccc2OCCNC(=O)OC(C)(C)C)[C@H](N(C)C(=O)OCc2ccccc2)C(=O)N[C@@H](C)C(=O)N1`, the ring closure, yield of all isomers in series [1] (from COC(=O)[C@H](Cc1cc(F)c(OCc2ccccc2)c(B2OC(C)(C)C(C)(C)O2)c1)NC(=O)[C@H](C)NC(=O)[C@H](c1ccc(OCCNC(=O)OC(C)(C)C)c(I)c1)N(C)C(=O)OCc1ccccc1, 20.06 mM, 70.0 °C, 1.5 h) stood at 31%.
`COC(=O)[C@@H]1Cc2cc(O)c(OC)c(c2)-c2cc(ccc2OC)[C@H](N(C)C(=O)OC(C)(C)C)C(=O)N[C@@H](C)C(=O)N1`: in series [1] (from COC(=O)[C@H](Cc1cc(O)c(OC)c(B2OC(C)(C)C(C)(C)O2)c1)NC(=O)[C@H](C)NC(=O)[C@H](c1ccc(OC)c(I)c1)N(C)C(=O)OC(C)(C)C, 65.0 °C, 2.0 h), the ring closure, yield of all isomers was found to be 17.1%.
As to `Cc1nc(-c2ccc(OC3CCCCC3)cc2)nc(C)c1C(=O)N[C@H](CO)C(=O)N(C)[C@@H]1C(=O)N[C@@H](C)C(=O)N[C@H](C(=O)NCC#N)Cc2ccc(OCCN)c(c2)-c2cc1ccc2OCCN` [Compound 508, (8S,11S,14S)-3,18-bis(2-aminoethoxy)-N-(cyanomethyl)-14-[[(2R)-2-[[2-[4-(cyclohexoxy)phenyl]-4,6-dimethyl-pyrimidine-5-carbonyl]amino]-3-hydroxy-propanoyl]-methyl-amino]-11-methyl-10,13-dioxo-9,12-diazatricyclo[13.3.1.12,6]icosa-1(18),2(20),3,5,15(19),16-hexaene-8-carboxamide], the minimum inhibitory concentration (MIC) (commonly the smallest concentration in the dilution series that meets the test's criterion for growth inhibition) in series [2] is 6 µM; in series [3], 1 µM.
Take `Cc1nc(-c2ccc(OC3CCCCC3)cc2)nc(C)c1C(=O)N[C@@H](CCCNC(N)=O)C(=O)N(C)[C@@H]1C(=O)N[C@@H](C)C(=O)N[C@H](C(=O)NCC#N)Cc2ccc(OCCN)c(c2)-c2cc1ccc2OCCN` [Compound 501, (8S,11S,14S)-3,18-bis(2-aminoethoxy)-N-(cyanomethyl)-14-[[(2S)-2-[[2-[4-(cyclohexoxy)phenyl]-4,6-dimethyl-pyrimidine-5-carbonyl]amino]-5-ureido-pentanoyl]-methyl-amino]-11-methyl-10,13-dioxo-9,12-diazatricyclo[13.3.1.12,6]icosa-1(18),2(20),3,5,15(19),16-hexaene-8-carboxamide]: the minimal inhibitory concentration (MIC) in series [2] amounted to 1 µM; in series [3] it was 0.063 µM.
In the case of `COc1ccc2cc1-c1cc(ccc1OCCN)C[C@@H](C(=O)NCC#N)NC(=O)[C@H](C)NC(=O)[C@H]2N(C)C(=O)[C@H](CCN)NC(=O)c1cnc(-c2ccc(C(C)(C)C)cc2)nc1C` (racemic) [Compound 558, rac-(8S,11S,14S)-3-(2-aminoethoxy)-N-(cyanomethyl)-18-methoxy-11-methyl-14-[methyl-[rac-(2S)-4-amino-2-[[2-(4-tert-butylphenyl)-4-methyl-pyrimidine-5-carbonyl]amino]butanoyl]amino]-10,13-dioxo-9,12-diazatricyclo[13.3.1.12,6]icosa-1(18),2(20),3,5,15(19),16-hexaene-8-carboxamide], the figures for the MIC in series [2] and in series [3] were 0.73 µM and 0.046 µM, respectively.
The matching figures for `CCCCCOc1ccc(-c2nc(C)c(C(=O)N[C@@H](CCN)C(=O)N(C)[C@@H]3C(=O)N[C@@H](C)C(=O)N[C@H](C(=O)NCC#N)Cc4ccc(OCCN)c(c4)-c4cc3ccc4OCCN)c(C)n2)cc1` (racemic) [Compound 328, rac-(8S,11S,14S)-3,18-bis(2-aminoethoxy)-N-(cyanomethyl)-11-methyl-14-[methyl-[rac-(2S)-4-amino-2-[[4,6-dimethyl-2-(4-pentoxyphenyl)pyrimidine-5-carbonyl]amino]butanoyl]amino]-10,13-dioxo-9,12-diazatricyclo[13.3.1.12,6]icosa-1(18),2(20),3,5,15(19),16-hexaene-8-carboxamide]: 0.07 µM and 0.0093 µM.
With `CCCCCCc1ccc(C(=O)N2C[C@@H](CN)C[C@H]2C(=O)N(C)[C@@H]2C(=O)N[C@@H](C)C(=O)N[C@H](C(=O)NCC#N)Cc3ccc(OCCN)c(c3)-c3cc2ccc3OCCN)c(C)c1` (racemic) [Compound 461, rac-(8S,11S,14S)-3,18-bis(2-aminoethoxy)-N-(cyanomethyl)-11-methyl-14-[methyl-[rac-(2S,4R)-4-(aminomethyl)-1-(4-hexyl-2-methyl-benzoyl)pyrrolidine-2-carbonyl]amino]-10,13-dioxo-9,12-diazatricyclo[13.3.1.12,6]icosa-1(18),2(20),3,5,15(19),16-hexaene-8-carboxamide], the MIC in series [2] was 1.1 µM; in series [3], 0.051 µM.
The matching figures for `CCCCc1ccc(-c2nc(C)c(C(=O)N[C@@H](CCN)C(=O)N(C)[C@@H]3C(=O)N[C@@H](C)C(=O)N[C@H](C(=O)NCC#N)Cc4ccc(OCCN)c(c4)-c4cc3ccc4OCCN)c(C)n2)cc1` (racemic) [Compound 255, rac-(8S,11S,14S)-3,18-bis(2-aminoethoxy)-N-(cyanomethyl)-11-methyl-14-[methyl-[rac-(2S)-4-amino-2-[[2-(4-butylphenyl)-4,6-dimethyl-pyrimidine-5-carbonyl]amino]butanoyl]amino]-10,13-dioxo-9,12-diazatricyclo[13.3.1.12,6]icosa-1(18),2(20),3,5,15(19),16-hexaene-8-carboxamide]: 0.066 µM and 0.0082 µM.
Regarding `CCC(C)(C)c1ccc(-c2ncc(C(=O)N[C@@H](CCN)C(=O)N(C)[C@@H]3C(=O)N[C@@H](C)C(=O)N[C@H](C(=O)NCC#N)Cc4ccc(O)c(c4)-c4cc3ccc4OCCN)c(C)n2)cc1` (racemic) [Compound 535, rac-(8S,11S,14S)-18-(2-aminoethoxy)-N-(cyanomethyl)-3-hydroxy-11-methyl-14-[methyl-[rac-(2S)-4-amino-2-[[2-[4-(1,1-dimethylpropyl)phenyl]-4-methyl-pyrimidine-5-carbonyl]amino]butanoyl]amino]-10,13-dioxo-9,12-diazatricyclo[13.3.1.12,6]icosa-1(18),2(20),3,5,15(19),16-hexaene-8-carboxamide], the MIC in series [2] turned out to be 0.23 µM; in series [3], 0.029 µM.
On the same counts, the results for `CCCc1ccc(-c2ccc(C(=O)N[C@@H](CCN)C(=O)N(C)[C@@H]3C(=O)N[C@@H](C)C(=O)N[C@H](C(=O)NCC#N)Cc4ccc(OCCN)c(c4)-c4cc3ccc4OCCN)c(C)n2)cc1` (racemic) [Compound 208, rac-(8S,11S,14S)-3,18-bis(2-aminoethoxy)-N-(cyanomethyl)-11-methyl-14-[methyl-[rac-(2S)-4-amino-2-[[2-methyl-6-(4-propylphenyl)pyridine-3-carbonyl]amino]butanoyl]amino]-10,13-dioxo-9,12-diazatricyclo[13.3.1.12,6]icosa-1(18),2(20),3,5,15(19),16-hexaene-8-carboxamide] are 0.14 µM and 0.017 µM.
As for `CCCOc1ccc(-c2nc(C)c(C(=O)N[C@@H](CCN)C(=O)N(C)[C@@H]3C(=O)N[C@@H](C)C(=O)N[C@H](C(=O)NCC#N)Cc4ccc(OCCN)c(c4)-c4cc3ccc4OCCN)c(C)n2)cc1` (racemic) [Compound 330, rac-(8S,11S,14S)-3,18-bis(2-aminoethoxy)-N-(cyanomethyl)-11-methyl-14-[methyl-[rac-(2S)-4-amino-2-[[4,6-dimethyl-2-(4-propoxyphenyl)pyrimidine-5-carbonyl]amino]butanoyl]amino]-10,13-dioxo-9,12-diazatricyclo[13.3.1.12,6]icosa-1(18),2(20),3,5,15(19),16-hexaene-8-carboxamide], the results for the MIC in series [2] and in series [3] were 0.26 µM and 0.033 µM, respectively.
Regarding `Cc1nc(-n2ccc(C(C)(C)C)cc2=O)nc(C)c1C(=O)N[C@@H](CCN)C(=O)N(C)[C@@H]1C(=O)N[C@@H](C)C(=O)N[C@H](C(=O)NCC#N)Cc2ccc(OCCN)c(c2)-c2cc1ccc2OCCN` (racemic) [Compound 319, rac-(8S,11S,14S)-3,18-bis(2-aminoethoxy)-N-(cyanomethyl)-11-methyl-14-[methyl-[rac-(2S)-4-amino-2-[[2-(4-tert-butyl-2-oxo-1-pyridyl)-4,6-dimethyl-pyrimidine-5-carbonyl]amino]butanoyl]amino]-10,13-dioxo-9,12-diazatricyclo[13.3.1.12,6]icosa-1(18),2(20),3,5,15(19),16-hexaene-8-carboxamide], the MIC came out at 8 µM in series [2] and 1 µM in series [3].

These data come from patent US20260274892A1, “MACROCYCLIC BROAD SPECTRUM ANTIBIOTICS” (RQx Pharmaceuticals, Inc., priority 2017, published 2026).
